In one data set the test system is RMUGS*. Put plainly: In vitro combination study, ovarian cancer cell line RMUGS. The conditions noted are these: 7+3 model.
The next data set deals with A2780. In words: In vitro combination study, ovarian cancer cell line A2780.
The test system of the next data set is COV644*. In words: In vitro combination study, ovarian cancer cell line COV644. Conditions: COV644*; 7+3 model.
Another data set deals with KURAMOCHI
In words: In vitro combination study, ovarian cancer cell line KURAMOCHI
Conditions: KURAMOCHI; 4+3 model.

A further data set concerns TOV21G. Put plainly: In vitro combination study, ovarian cancer cell line TOV21G. The class given is cell-based. Conditions: 4+3 model.
The next data set relates to CAOV-3. In words: In vitro combination study, ovarian cancer cell line CAOV-3. The format is cell-based. The conditions noted are these: 4+3 model.
Another data set relates to OVISE. Put plainly: In vitro combination study, ovarian cancer cell line OVISE. The conditions noted are these: OVISE; 4+3 model.
The next data set concerns OV-90. Put plainly: In vitro combination study, ovarian cancer cell line OV-90. The conditions noted are these: OV-90; 4+3 model.
The test system of another data set is SKOV3. In words: In vitro combination study, ovarian cancer cell line SKOV3. Conditions: 4+3 model.
The subject of the next data set is OVMANA. In words: In vitro combination study, ovarian cancer cell line OVMANA. The conditions noted are these: OVMANA; 4+3 model.
The test system of the next data set is COV362. Put plainly: In vitro combination study, ovarian cancer cell line COV362. The conditions noted are these: COV362; 4+3 model.
Another data set concerns OVSAHO. In words: In vitro combination study, ovarian cancer cell line OVSAHO. The conditions noted are these: 4+3 model.
Another data set has as its system JH)S-4. In words: In vitro combination study, ovarian cancer cell line JH)S-4. The conditions noted are these: 4+3 model.
The next data set has as its system SNU840. In words: In vitro combination study, ovarian cancer cell line SNU840. The conditions noted are these: SNU840; 4+3 model.
For another data set, the system named is TOV112D. Put plainly: In vitro combination study, ovarian cancer cell line TOV112D. Conditions: 4+3 model.
The next data set concerns HCC1419. In words: In vitro combination study, breast cancer cell line HCC1419. The conditions noted are these: ER/PR −/−, HER2 +, 7 day pre-treatment + 6 day co-treatment.
In the next data set the test system is CAMA-1. Put plainly: In vitro combination study, breast cancer cell line CAMA-1. The class given is cell-based. Conditions: ER/PR +/−, HER2 +, 7 day pre-treatment + 6 day co-treatment.
In a further data set the test system is BT474. In words: In vitro combination study, breast cancer cell line BT474. Conditions: ER/PR +/+, HER2 +, 7 day pre-treatment + 6 day co-treatment.
In the next data set the test system is DU4475. In words: In vitro combination study, breast cancer cell line DU4475. Conditions: ER/PR −/−, HER2 −, 7 day pre-treatment + 6 day co-treatment.
For another data set, the system named is ES-2. Put plainly: In vitro combination study, ovarian cancer cell line ES-2. The conditions noted are these: 4+3 model.
For the next data set, the system named is SUM52PE. In words: In vitro combination study, breast cancer cell line SUM52PE. Conditions: ER/PR −/−, HER2 −, 7 day pre-treatment + 6 day co-treatment.
In a further data set the test system is SUM159PT. In words: In vitro combination study, breast cancer cell line SUM159PT. The conditions noted are these: ER/PR −/−, HER2 −, 7 day pre-treatment + 6 day co-treatment.

Read-outs that look alike come from different tables or passages of the source.

As to `COc1cc2c(Oc3ccc4[nH]c(C)cc4c3F)ncnc2cc1OCCCN1CCCC1` [AZD2171], the “Synergy or antagonism of second agent with tazemetostat (IC50 shift of second agent)” value is on record as “B (Synergy > 4× IC50 shift)” with COV504 (COV504, 4+3 model); “C (Synergy > 2× IC50 shift)” with RMUGS*; “C (Synergy > 2× IC50 shift)” in the data set with A2780 (A2780, 4+3 model); “C (Synergy > 2× IC50 shift)” with COV644*; “C (Synergy > 2× IC50 shift)” with KURAMOCHI.
With `Cc1[nH]c2ccccc2c1CCNCc1ccc(/C=C/C(=O)NO)cc1` [Panobinostat], the “Synergy or antagonism of second agent with tazemetostat (IC50 shift of second agent)” value with TOV21G is “C (Synergy > 2× IC50 shift)”; in the data set with CAOV-3, “C (Synergy > 2× IC50 shift)”; with COV504 (COV504, 4+3 model), “B (Synergy > 4× IC50 shift)”; with OVISE, “C (Synergy > 2× IC50 shift)”; in the data set on OV-90 it was “C (Synergy > 2× IC50 shift)”; in the data set with SKOV3 it was “B (Synergy > 4× IC50 shift)”. In addition, the “Synergy or antagonism of second agent with tazemetostat (IC50 shift of second agent)” value in the data set with A2780 (A2780, 4+3 model) is listed as “B (Synergy > 4× IC50 shift)”; with OVMANA, “C (Synergy > 2× IC50 shift)”; in the data set on COV362, “C (Synergy > 2× IC50 shift)”; in the data set on OVSAHO it was “C (Synergy > 2× IC50 shift)”; in the data set on JH)S-4, “C (Synergy > 2× IC50 shift)”; in the data set on COV644* it was “C (Synergy > 2× IC50 shift)”. In addition, the “Synergy or antagonism of second agent with tazemetostat (IC50 shift of second agent)” value in the data set on SNU840, in the data set with TOV112D and in the data set with KURAMOCHI was “C (Synergy > 2× IC50 shift)” each time.
Regarding AZD5363, the “Synergy or antagonism of second agent with tazemetostat (IC50 shift of second agent)” value with A2780 is listed as “B (key: B: Synergy > 4× IC50 shift; Synergy > 2× IC50 shift; No Effect; Antagonism; X: Not Tested)”.
As for `N.N.O=C([O-])C1(C(=O)[O-])CCC1.[Pt+2]` [Carboplatin], in the data set with A2780 (A2780, 4+3 model), the “Synergy or antagonism of second agent with tazemetostat (IC50 shift of second agent)” value is listed as “B (Synergy > 4× IC50 shift)”.
In the case of `Nc1ccn([C@@H]2O[C@H](CO)[C@@H](O)C2(F)F)c(=O)n1` [Gemcitabine], the “Synergy or antagonism of second agent with tazemetostat (IC50 shift of second agent)” value in the data set on COV504 (COV504, 4+3 model) is given as “C (Synergy > 2× IC50 shift)”; with RMUGS*, “B (Synergy > 4× IC50 shift)”; in the data set with SKOV3, “C (Synergy > 2× IC50 shift)”; with A2780 (A2780, 4+3 model), “B (Synergy > 4× IC50 shift)”; with HCC1419, “C (Synergy > 2× IC50 shift)”.
As for `Cc1nc(NC(=O)N2CCC[C@H]2C(N)=O)sc1-c1ccnc(C(C)(C)C(F)(F)F)c1` [BYL719], the “Synergy or antagonism of second agent with tazemetostat (IC50 shift of second agent)” value with CAOV-3 is listed as “C (Synergy > 2× IC50 shift)”; with COV504 (COV504, 4+3 model) it was “B (Synergy > 4× IC50 shift)”; with OVISE, “C (Synergy > 2× IC50 shift)”; in the data set with SKOV3, “C (Synergy > 2× IC50 shift)”; in the data set with A2780 (A2780, 4+3 model), “B (Synergy > 4× IC50 shift)”; in the data set with COV644*, “C (Synergy > 2× IC50 shift)”. Further, the “Synergy or antagonism of second agent with tazemetostat (IC50 shift of second agent)” value in the data set with SNU840 was “B (Synergy > 4× IC50 shift)”; in the data set on TOV112D, “C (Synergy > 2× IC50 shift)”.
As for `CCc1cnn2c(NCc3ccc[n+]([O-])c3)cc(N3CCCC[C@H]3CCO)nc12` [Dinaciclib], in the data set with CAMA-1, the “Synergy or antagonism of second agent with tazemetostat (IC50 shift of second agent)” value is “A (Antagonism)”.
As for `Cc1cc(Nc2ccc(NC(=O)c3ccc(Nc4ccnc5ccccc45)cc3)cc2)nc(N)n1` [SGI1027], the results for the “Synergy or antagonism of second agent with tazemetostat (IC50 shift of second agent)” value in the data set on CAMA-1, with BT474 and with DU4475 were “C (Synergy > 2× IC50 shift)”, “B (Synergy > 4× IC50 shift)” and “A (Antagonism)”, respectively.
For the compound `C=CCn1c(=O)c2cnc(Nc3ccc(N4CCN(C)CC4)cc3)nc2n1-c1cccc(C(C)(C)O)n1` [MK1775], the “Synergy or antagonism of second agent with tazemetostat (IC50 shift of second agent)” value is on record as “C (Synergy > 2× IC50 shift)” with CAOV-3; “C (Synergy > 2× IC50 shift)” with COV504 (COV504, 4+3 model); “B (Synergy > 4× IC50 shift)” in the data set with RMUGS*; “C (Synergy > 2× IC50 shift)” with SKOV3; “B (Synergy > 4× IC50 shift)” with A2780 (A2780, 4+3 model); “C (Synergy > 2× IC50 shift)” in the data set with JH)S-4. Also, the “Synergy or antagonism of second agent with tazemetostat (IC50 shift of second agent)” value with COV644* was “B (Synergy > 4× IC50 shift)”; in the data set on TOV112D, “C (Synergy > 2× IC50 shift)”; in the data set on KURAMOCHI, “C (Synergy > 2× IC50 shift)”.
As for `Cc1ccc(NC(=O)c2ccc(CN3CCN(C)CC3)cc2)cc1Nc1nccc(-c2cccnc2)n1` [Imatinib], the “Synergy or antagonism of second agent with tazemetostat (IC50 shift of second agent)” value in the data set with ES-2 was “A (Antagonism)”.
On to `CS(=O)(=O)N1CCN(Cc2cc3nc(-c4cccc5[nH]ncc45)nc(N4CCOCC4)c3s2)CC1` [Pictilisib], for which the “Synergy or antagonism of second agent with tazemetostat (IC50 shift of second agent)” value in the data set with CAOV-3 is “C (Synergy > 2× IC50 shift)”; in the data set on A2780 (A2780, 4+3 model), “C (Synergy > 2× IC50 shift)”; in the data set with OVMANA it was “C (Synergy > 2× IC50 shift)”; in the data set on COV644*, “C (Synergy > 2× IC50 shift)”; with SNU840, “C (Synergy > 2× IC50 shift)”.
Turning to `NC(=O)c1ccc(I)c([N+](=O)[O-])c1` [Iniparib (BSI 201), Iniparib], the “Synergy or antagonism of second agent with tazemetostat (IC50 shift of second agent)” value in the data set with CAMA-1, with SUM52PE and in the data set with HCC1419 was “C (Synergy > 2× IC50 shift)” in each case.
On to `CCCS(=O)(=O)Nc1ccc(F)c(C(=O)c2c[nH]c3ncc(-c4ccc(Cl)cc4)cc23)c1F` [Vemurafenib], for which the “Synergy or antagonism of second agent with tazemetostat (IC50 shift of second agent)” value in the data set with ES-2 is “C (Synergy > 2× IC50 shift)”.
Consider `C/C=C1\NC(=O)[C@H]2CSSCC/C=C/[C@H](CC(=O)N[C@H](C(C)C)C(=O)N2)OC(=O)[C@H](C(C)C)NC1=O` [Romidepsin], for which the “Synergy or antagonism of second agent with tazemetostat (IC50 shift of second agent)” value is “C (key: B: Synergy > 4× IC50 shift; Synergy > 2× IC50 shift; No Effect; Antagonism; X: Not Tested)” with COV504 and “C (Synergy > 2× IC50 shift)” in the data set on COV362.
Turning to `O=C(c1cc(Cc2n[nH]c(=O)c3ccccc23)ccc1F)N1CCN(C(=O)C2CC2)CC1` [Olaparib], the “Synergy or antagonism of second agent with tazemetostat (IC50 shift of second agent)” value is recorded as “B (Synergy > 4× IC50 shift)” in the data set with A2780 (A2780, 4+3 model) and “C (Synergy > 2× IC50 shift)” in the data set on SUM159PT.
For `CC1(C)CCC(CN2CCN(c3ccc(C(=O)NS(=O)(=O)c4ccc(NCC5CCOCC5)c([N+](=O)[O-])c4)c(Oc4cnc5[nH]ccc5c4)c3)CC2)=C(c2ccc(Cl)cc2)C1` [ABT199], the “Synergy or antagonism of second agent with tazemetostat (IC50 shift of second agent)” value in the data set with A2780 (A2780, 4+3 model) is reported as “C (Synergy > 2× IC50 shift)”; with TOV112D, “C (Synergy > 2× IC50 shift)”.

These data come from patent publication US11951108B2, “Combination therapy for treating cancer” (Epizyme, Inc., priority 2016, dated 2024).
